Laboratory results as given in patent publication US8703701B2 (Indiana University Research and Technology Corporation, priority 2009, dated 2014).

Key:
glucagon receptor = target: T1, glucagon receptor (Homo sapiens, UniProt P47871); assay: cAMP induction, firefly luciferase reporter assay, glucagon receptor; assay type: cell-based; conditions: for EC50: Activity at Glucagon Receptor EC50 [pM]; for Activity at Glucagon Receptor % Relative Activity: compared to native glucagon
T1 construct: expressed in transfected cells; host or cells: HEK293
T1 sequence (P47871 26-477): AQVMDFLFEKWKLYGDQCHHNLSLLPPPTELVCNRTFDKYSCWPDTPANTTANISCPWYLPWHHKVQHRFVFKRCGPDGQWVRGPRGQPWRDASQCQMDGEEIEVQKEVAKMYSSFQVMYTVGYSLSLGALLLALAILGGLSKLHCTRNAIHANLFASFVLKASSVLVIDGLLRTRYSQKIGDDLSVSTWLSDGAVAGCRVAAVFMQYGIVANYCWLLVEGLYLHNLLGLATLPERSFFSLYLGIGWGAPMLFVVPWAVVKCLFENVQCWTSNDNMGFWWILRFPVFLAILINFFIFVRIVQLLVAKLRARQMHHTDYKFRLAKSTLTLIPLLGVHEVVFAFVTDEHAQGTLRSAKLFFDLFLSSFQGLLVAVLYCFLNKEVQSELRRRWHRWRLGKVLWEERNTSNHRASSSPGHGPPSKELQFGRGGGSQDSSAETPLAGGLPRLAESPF
Method: (§1) The ability of each peptide to induce cAMP was measured in a firefly luciferase-based reporter assay.
(§2) At the end of the incubation, 100 μL of LucLite luminescence substrate reagent (Perkin Elmer, Wellesley, Mass.) were added to each well. The plate was shaken briefly, incubated 10 min in the dark and light output was measured on MicroBeta-1450 liquid scintillation counter (Perkin-Elmer, Wellesley, Mass.).

GLP-1 receptor = target: T2, GLP-1 receptor (Homo sapiens, UniProt P43220); assay: cAMP induction, firefly luciferase reporter assay, GLP-1 receptor; assay type: cell-based; conditions: for Activity at GLP-1 Receptor % Relative Activity: compared to native GLP-1
T2 construct: expressed in transfected cells; host or cells: HEK293
T2 sequence (P43220 24-463): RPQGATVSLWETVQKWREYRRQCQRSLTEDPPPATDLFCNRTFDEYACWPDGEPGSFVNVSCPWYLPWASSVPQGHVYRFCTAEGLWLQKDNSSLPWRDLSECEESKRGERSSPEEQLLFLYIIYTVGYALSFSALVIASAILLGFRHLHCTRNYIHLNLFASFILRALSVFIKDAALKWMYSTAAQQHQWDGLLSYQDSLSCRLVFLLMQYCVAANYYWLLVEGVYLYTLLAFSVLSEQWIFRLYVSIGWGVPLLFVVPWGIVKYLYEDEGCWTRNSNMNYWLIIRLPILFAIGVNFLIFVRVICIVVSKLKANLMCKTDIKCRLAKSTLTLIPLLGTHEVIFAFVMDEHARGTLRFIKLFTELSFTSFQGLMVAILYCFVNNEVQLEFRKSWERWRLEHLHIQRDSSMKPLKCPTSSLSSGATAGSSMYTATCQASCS
Method: as §1, §2

[1] = Activity at GLP-1 Receptor EC50 [pM], Table 3A

| EC50 (glucagon receptor; Table 3A) | Activity at Glucagon Receptor % Relative Activity (glucagon receptor; Table 3A) | EC50 (GLP-1 receptor; [1]) | Activity at GLP-1 Receptor % Relative Activity (GLP-1 receptor; Table 3A) | Activity at Glucagon Receptor % Relative Activity (glucagon receptor; Table 5) | EC50 (GLP-1 receptor; Activity at GLP-1 Receptor EC50 [nM], Table 5) | Activity at GLP-1 Receptor % Relative Activity (GLP-1 receptor; Table 5) | SMILES |
| --- | --- | --- | --- | --- | --- | --- | --- |
| 2 pM | 1000% | 5 pM | 500% | – | – | – | CCCCCCCCCCCCCCCC(=O)N[C@@H](CCC(=O)N[C@@H](CCC(=O)NCCCC[C@H](NC(=O)[C@H](CC(=O)O)NC(=O)[C@H](CO)NC(=O)[C@@H](NC(=O)[C@H](Cc1ccccc1)NC(=O)[C@@H](NC(=O)CNC(=O)[C@H](CCC(N)=O)NC(=O)C(C)(C)NC(=O)[C@@H](N)Cc1c[nH]cn1)[C@@H](C)O)[C@@H](C)O)C(=O)N[C@@H](CO)C(=O)N[C@@H](CCCCN)C(=O)N[C@@H](Cc1ccc(O)cc1)C(=O)N[C@@H](CC(C)C)C(=O)N[C@@H](CC(=O)O)C(=O)N[C@@H](CCC(=O)O)C(=O)N[C@@H](CCCNC(=N)N)C(=O)N[C@@H](C)C(=O)N[C@@H](C)C(=O)N[C@@H](CCC(N)=O)C(=O)N[C@@H](CC(=O)O)C(=O)N[C@@H](Cc1ccccc1)C(=O)N[C@H](C(=O)N[C@@H](CCC(N)=O)C(=O)N[C@@H](Cc1c[nH]c2ccccc12)C(=O)N[C@@H](CC(C)C)C(=O)N[C@@H](CCSC)C(=O)N[C@@H](CC(=O)O)C(=O)N[C@H](C(N)=O)[C@@H](C)O)C(C)C)C(=O)O)C(=O)O [compound 50] |
| 2.9 pM | 379% | 2.9 pM | 1276% | – | – | – | CCCCCCCCCCCCCCCC(=O)N[C@@H](CCC(=O)NCCCC[C@H](NC(=O)[C@H](CC(=O)O)NC(=O)[C@H](CO)NC(=O)[C@@H](NC(=O)[C@H](Cc1ccccc1)NC(=O)[C@@H](NC(=O)CNC(=O)[C@H](CCC(N)=O)NC(=O)C(C)(C)NC(=O)[C@@H](N)Cc1c[nH]cn1)[C@@H](C)O)[C@@H](C)O)C(=O)N[C@@H](CO)C(=O)N[C@@H](CCCCN)C(=O)N[C@@H](Cc1ccc(O)cc1)C(=O)N[C@@H](CC(C)C)C(=O)N[C@@H](CC(=O)O)C(=O)N[C@@H](CCC(=O)O)C(=O)N[C@@H](CCC(N)=O)C(=O)N[C@@H](C)C(=O)N[C@@H](C)C(=O)N[C@@H](CCCCN)C(=O)N[C@@H](CCC(=O)O)C(=O)N[C@@H](Cc1ccccc1)C(=O)N[C@H](C(=O)N[C@@H](C)C(=O)N[C@@H](Cc1c[nH]c2ccccc12)C(=O)N[C@@H](CC(C)C)C(=O)N[C@@H](CC(C)C)C(=O)N[C@@H](CC(=O)O)C(=O)N[C@H](C(N)=O)[C@@H](C)O)[C@@H](C)CC)C(=O)O [compound 52] |
| – | 511% | 6 pM | 375% | – | – | – | CCCCCCCCCCCCCCCC(=O)N[C@@H](CCC(=O)N[C@@H](CCC(=O)NCCCC[C@H](NC(=O)[C@H](CC(=O)O)NC(=O)[C@H](CO)NC(=O)[C@@H](NC(=O)[C@H](Cc1ccccc1)NC(=O)[C@@H](NC(=O)CNC(=O)[C@H](CCC(N)=O)NC(=O)C(C)(C)NC(=O)[C@@H](N)Cc1c[nH]cn1)[C@@H](C)O)[C@@H](C)O)C(=O)N[C@@H](CO)C(=O)N[C@@H](CCCCN)C(=O)N[C@@H](Cc1ccc(O)cc1)C(=O)N[C@@H](CC(C)C)C(=O)N[C@@H](CC(=O)O)C(=O)NC(C)(C)C(=O)N[C@@H](CCCNC(=N)N)C(=O)N[C@@H](C)C(=O)N[C@@H](C)C(=O)N[C@@H](CCC(N)=O)C(=O)N[C@@H](CC(=O)O)C(=O)N[C@@H](Cc1ccccc1)C(=O)N[C@H](C(=O)N[C@@H](CCC(N)=O)C(=O)N[C@@H](Cc1c[nH]c2ccccc12)C(=O)N[C@@H](CC(C)C)C(=O)N[C@@H](CC(C)C)C(=O)N[C@@H](CC(=O)O)C(=O)N[C@H](C(N)=O)[C@@H](C)O)C(C)C)C(=O)O)C(=O)O [compound 49] |
| – | – | – | – | 272% | 68 pM | 125% | CCCCCCCCCCCCCCCC(=O)N[C@@H](CCC(=O)NCCCC[C@H](NC(=O)[C@H](CC(=O)O)NC(=O)[C@H](CO)NC(=O)[C@@H](NC(=O)[C@H](Cc1ccccc1)NC(=O)[C@@H](NC(=O)CNC(=O)[C@H](CCC(N)=O)NC(=O)[C@@H](CO)NC(=O)[C@@H](N)Cc1c[nH]cn1)[C@@H](C)O)[C@@H](C)O)C(=O)N[C@@H](CO)C(=O)N[C@@H](CCCCN)C(=O)N[C@@H](Cc1ccc(O)cc1)C(=O)N[C@@H](CC(C)C)C(=O)N[C@@H](CC(=O)O)C(=O)N[C@@H](CCC(=O)O)C(=O)N[C@@H](CCC(N)=O)C(=O)N[C@@H](C)C(=O)N[C@@H](C)C(=O)N[C@@H](CCCCN)C(=O)N[C@@H](CCC(=O)O)C(=O)N[C@@H](Cc1ccccc1)C(=O)N[C@H](C(=O)N[C@@H](CS)C(=O)N[C@@H](Cc1c[nH]c2ccccc12)C(=O)N[C@@H](CC(C)C)C(=O)N[C@@H](CC(C)C)C(=O)N[C@@H](CC(=O)O)C(=O)N[C@H](C(=O)NCC(=O)NCC(=O)O)[C@@H](C)O)[C@@H](C)CC)C(=O)O [compound 56] |
